Earlier results on 53 molecules are cited in article PMC12308805, “Ultrahigh-Throughput Virtual Screening Strategies against PPI Targets: A Case Study of STAT Inhibitors” (Journal of Chemical Information and Modeling, 2025).

One data set concerns STAT3. Conditions: sheet 6QHD_actives_decoys; retrospective screening set for STAT3 SH2 domain (PDB 6QHD); […]; ref DUD-E; cited from earlier work.
Turning to `Cc1ccc(N2C(=O)NC(=O)/C(=C\c3cc(C)n(-c4cc(C(=O)O)cc(C(=O)O)c4)c3C)C2=O)cc1` [Decoy670], the Type entry is “Inactive (Decoy)”.
On to `Cc1cc(C(=O)Nc2ccc(S(=O)(=O)Nc3ncccn3)cc2)cc(S(=O)(=O)N(C)C)c1C` [Decoy675], for which the Type entry is on record as “Inactive (Decoy)”.
For `O=c1c(C[C@H](O)CN2CCOCC2)c(O)n(C[C@@H](O)CN2CCOCC2)c(=O)n1C[C@H](O)CN1CCOCC1` [Decoy679], the Type entry is listed as “Inactive (Decoy)”.
Turning to `O=c1c(C[C@H](O)CN2CCOCC2)c(O)n(C[C@H](O)CN2CCOCC2)c(=O)n1C[C@H](O)CN1CCOCC1` [Decoy680], the Type entry is reported as “Inactive (Decoy)”.
Regarding `CSc1cccc(NC(=O)C[C@@H]2SC(N[C@H](c3cccs3)c3c(O)[nH]c(=O)[nH]c3=O)=NC2=O)c1` [Decoy681], the Type entry was “Inactive (Decoy)”.
Turning to `C=C(CO[C@H]1O[C@@H](CO[C@H]2OC[C@@H](O)[C@@H](O)[C@H]2O)[C@@H](O)[C@@H](O)[C@H]1O)[C@H]1Cc2c(ccc3c2O[C@@H]2COc4cc(OC)c(OC)cc4[C@H]2C3=O)O1` [Decoy686], the Type entry is “Inactive (Decoy)”.
As for `COc1ccc(CCN2C(=O)NC(O)=C3C2=NC(=O)[C@@]3(NS(=O)(=O)c2nnc(NC(C)=O)s2)C(F)(F)F)cc1OC` [Decoy687], the Type result is “Inactive (Decoy)”.
On to `O=C(CCCN1CCC(O[C@@H]2O[C@H](C(=O)O)[C@@H](O)[C@H](O)[C@H]2O)(c2ccc(Cl)cc2)CC1)c1ccc(F)cc1` [Decoy692], for which the Type entry was “Inactive (Decoy)”.
With `COc1ccccc1NS(=O)(=O)c1cccc(C(=O)NNC(=O)c2cc3ccccc3[nH]c2=O)c1` [Decoy693], the Type result is given as “Inactive (Decoy)”.
For `COc1cc([C@H]2C(C#N)=C(N)Oc3[nH]nc(-c4cc(OC)c(OC)c(OC)c4)c32)ccc1OC(=O)N1CCOCC1` [Decoy695], the Type entry is recorded as “Inactive (Decoy)”.
Regarding `CC(=O)Nc1ccc(S(=O)(=O)N[C@@]2(C(F)(F)F)C(=O)N=C3C2=C(O)N=C(S)N3Cc2ccco2)cc1` [Decoy697], the Type result was “Inactive (Decoy)”.
As for `COc1ccc(NS(=O)(=O)c2cccc(NS(=O)(=O)c3cccc([N+](=O)[O-])c3)c2)cc1` [Decoy709], the Type result is “Inactive (Decoy)”.

Still in this data set, the particulars now being: sheet 6QHD_actives_decoys; retrospective screening set for STAT3 SH2 domain (PDB 6QHD); decoys generated with DUD-E and presumed inactive, not tested; ref DUD-E; cited from earlier work.
In the case of `COCCN(C/C(O)=N/c1nc(-c2ccc(Cl)cc2)cn1-c1ccc(OC)cc1)C(=O)C1CCCC1` [Decoy663], the Type entry is “Inactive (Decoy)”.
As to `CC(=O)N[C@H]1[C@H]([C@H](O)[C@H](O)CO)O[C@@](O[C@H]2[C@@H](O)[C@@H](CO)O[C@@H](O[C@@H]([C@H](O)[C@@H](O)C=O)[C@H](O)CO)[C@@H]2O)(C(=O)O)C[C@@H]1O` [Decoy664], the Type result is “Inactive (Decoy)”.
Turning to `COc1ccc(C(=O)Nc2ccc(S(=O)(=O)c3ccc(NC(=O)c4ccc(OC)c(OC)c4)cc3)cc2)cc1OC` [Decoy665], the Type result was “Inactive (Decoy)”.
For the molecule `CN(Cc1cnc2nc(N)nc(N)c2n1)c1ccc(C(=O)N[C@H](CCC(=O)NCCNC(=O)CCCC[C@@H]2SC[C@@H]3NC(=O)N[C@@H]32)C(=O)O)cc1` [Decoy666], the Type result is “Inactive (Decoy)”.
For `[H]/N=C(N/C(N)=N\c1nc(C)c2cc(OC)ccc2n1)\C(C(=O)c1ccccc1)=C(/O)OCC` [Decoy667], the Type result is reported as “Inactive (Decoy)”.
As to `O=C(Nc1ccc(S(=O)(=O)Nc2ncccn2)cc1)c1cccc(C(=O)Nc2ccc(S(=O)(=O)Nc3ncccn3)cc2)n1` [Decoy668], the Type entry is “Inactive (Decoy)”.
As for `COC(=O)c1ccc(S(=O)(=O)N(CCCO)Cc2cc3cc4c(cc3[nH]c2=O)OCCO4)cc1` [Decoy669], the Type result is on record as “Inactive (Decoy)”.
`CCOC(=O)c1c(NC(=O)c2ccc([N+](=O)[O-])cc2)sc2c(OCCN(CC)CC)c(Br)ccc12` [Decoy671]: the Type entry was “Inactive (Decoy)”.
For the molecule `Nc1cnn([C@@H]2O[C@@H](COC(=O)c3ccccc3)[C@H](OC(=O)c3ccccc3)[C@@H]2OC(=O)c2ccccc2)c(=O)n1` [Decoy672], the Type result is “Inactive (Decoy)”.
On to `CCOC(=O)C(Sc1nc(N)c(NC(=O)c2ccc(Br)o2)c(=O)[nH]1)C(=O)OCC` [Decoy673], for which the Type result is “Inactive (Decoy)”.
`COc1cc([C@H]2C(C(=O)c3nc4c(C)cccn4c3C)=C(O)C(=O)N2CCCN2CCOCC2)ccc1O` [Decoy674]: the Type entry was “Inactive (Decoy)”.
Turning to `COc1cc(/C=N/Nc2nc(SCC(=O)Nc3cc(F)ccc3C)n[nH]2)cc(OC)c1OC` [Decoy676], the Type result is recorded as “Inactive (Decoy)”.
In the case of `CCOC(=O)c1ccc(N2C(=O)[C@@H](CC(=O)Nc3ccc(OCC)cc3)N(CCc3ccncc3)C2=S)cc1` [Decoy677], the Type entry is “Inactive (Decoy)”.
As for `COc1ccc(Cl)cc1N/C(N)=N\c1nc(CSc2nnnn2-c2ccccc2)cc(=O)[nH]1` [Decoy678], the Type entry is listed as “Inactive (Decoy)”.
For the molecule `CCCC[C@@]1(c2ccc(F)cc2)NC(=O)N(CC(=O)Nc2ccc(S(=O)(=O)N(CC)CC)cc2)C1=O` [Decoy682], the Type entry is “Inactive (Decoy)”.
Consider `Cc1ccc(S(=O)(=O)n2cc(/C=N\N=C3/NC(=O)[C@H](CC(=O)O)S3)c3ccccc32)cc1` [Decoy683], for which the Type entry is reported as “Inactive (Decoy)”.
`CCN(CC)S(=O)(=O)c1ccc(NC(=O)CSc2n[nH]c(NN=C3CCCC3)n2)cc1` [Decoy684]: the Type result is “Inactive (Decoy)”.
As to `OC[C@@]1(O)CO[C@H](OC[C@H]2O[C@@H](O[C@H](CCCCc3ccc(O)cc3)CCc3ccc(O)cc3)[C@H](O[C@H]3OC[C@](O)(CO)[C@H]3O)[C@@H](O)[C@@H]2O)[C@@H]1O` [Decoy685], the Type result was “Inactive (Decoy)”.
`C=C[C@@](C)(CC/C=C(\C)CC/C=C(\C)C[C@H](O)/C=C(\C)C(=O)O)O[C@@H]1O[C@H](CO)[C@@H](O)[C@H](O)[C@H]1O[C@@H]1O[C@H](CO)[C@@H](O)[C@H](O)[C@H]1O` [Decoy688]: the Type entry is “Inactive (Decoy)”.
In the case of `C=C[C@](C)(CC/C=C(\C)CC/C=C(\C)C[C@H](O)/C=C(\C)C(=O)O)O[C@@H]1O[C@H](CO)[C@@H](O)[C@H](O)[C@H]1O[C@@H]1O[C@H](CO)[C@@H](O)[C@H](O)[C@H]1O` [Decoy689], the Type result was “Inactive (Decoy)”.
Consider `COc1ccc([N+](=O)[O-])cc1NC(=S)N[C@@H](NC(=O)c1ccco1)C(Cl)(Cl)Cl` [Decoy690], for which the Type entry was “Inactive (Decoy)”.
For `C=C[C@@](C)(O)CC/C=C(\C)C(=O)O[C@@H]1[C@@H]2O[C@]2(C)[C@H]2[C@H](O[C@@H]3O[C@H](CO)[C@@H](O)[C@H](O)[C@H]3O)OC=C[C@@]12O` [Decoy691], the Type entry is “Inactive (Decoy)”.
For the molecule `COc1ccc(/C=N\N=C2/NC(=O)[C@@H](CC(=O)Nc3ccc([N+](=O)[O-])cc3)S2)c(C(=O)O)c1OC` [Decoy694], the Type result is “Inactive (Decoy)”.
Take `Cc1cc(C)n(Cc2ccc(NC(=S)Nc3ccc(S(=O)(=O)Nc4ncccn4)cc3)cc2)n1` [Decoy696]: the Type entry is on record as “Inactive (Decoy)”.
As to `CC[C@H](c1nnnn1C[C@H]1CCCO1)N(Cc1ccc(C)cc1)Cc1cc2cc(OC)c(OC)cc2[nH]c1=O` [Decoy698], the Type entry was “Inactive (Decoy)”.
For `C=C[C@H]1[C@H](O[C@H]2O[C@@H](CO)[C@@H](O)[C@@H](O)[C@@H]2O)OC=C(C(=O)OC)[C@H]1CCOC(=O)c1cc(O)c(O)c(O)c1` [Decoy699], the Type entry is given as “Inactive (Decoy)”.
`C=C[C@H]1[C@H](O[C@H]2O[C@@H](CO)[C@@H](O)[C@@H](O)[C@H]2O)OC=C(C(=O)OC)[C@H]1CCOC(=O)c1cc(O)c(O)c(O)c1` [Decoy700]: the Type result was “Inactive (Decoy)”.
As to `O=C[C@H](O)[C@@H](O)[C@H](O)[C@@H](CO)O[P@](=O)(OC[C@H]1O[C@@H](n2ccc(=O)[nH]c2=O)[C@H](O)[C@@H]1O)OP(=O)(O)O` [Decoy701], the Type entry is recorded as “Inactive (Decoy)”.
For `Cc1cc(NS(=O)(=O)c2ccc(NC(=O)CCC(=O)Nc3ccc(S(=O)(=O)Nc4cc(C)on4)cc3)cc2)no1` [Decoy702], the Type entry is given as “Inactive (Decoy)”.
On to `CCN(CC)c1ccc(/C=N/NC(=O)CSc2nnc(-c3cc(OC)c(OC)c(OC)c3)n2-c2ccccc2)c(O)c1` [Decoy703], for which the Type entry is “Inactive (Decoy)”.
Consider `CCOC(=O)c1ccc(NC(=O)CSc2ccc3nnc(CCNS(=O)(=O)c4ccc(OC)cc4)n3n2)cc1` [Decoy704], for which the Type result is given as “Inactive (Decoy)”.
In the case of `CCOC(=O)C1=C(C)NC(=O)N[C@H]1c1cc(OC)c(OCC(=O)Nc2ccc(C)cc2)cc1Br` [Decoy705], the Type entry was “Inactive (Decoy)”.
As for `COc1cc(/C=C/C(=O)O[C@H]2[C@H](O)[C@@H](COC(=O)/C=C/c3ccc(O)cc3)O[C@@]2(CO)O[C@H]2O[C@H](CO)[C@@H](O)[C@H](O)[C@H]2O)ccc1O` [Decoy706], the Type result is on record as “Inactive (Decoy)”.
With `COc1ccccc1OCCNC[C@@H](O)CN(CCOc1ccccc1OC)C[C@H](O)COc1cccc2[nH]c3ccccc3c12` [Decoy707], the Type result was “Inactive (Decoy)”.
For the molecule `COc1ccccc1OCCNC[C@H](O)CN(CCOc1ccccc1OC)C[C@H](O)COc1cccc2[nH]c3ccccc3c12` [Decoy708], the Type result is reported as “Inactive (Decoy)”.
As for `CCN(CC)c1ccc(/C=N/NC(=O)CN(c2cc(Cl)ccc2OC)S(=O)(=O)c2ccc(C)c([N+](=O)[O-])c2)cc1` [Decoy710], the Type entry is “Inactive (Decoy)”.
Turning to `COC(=O)c1[nH]c(C)c(C(=O)C2=C(O)C(=O)N(CCCN3CCOCC3)[C@@H]2c2cc(OC)c(OC)c(OC)c2)c1C` [Decoy711], the Type entry is recorded as “Inactive (Decoy)”.
`COCCN(C(=O)COc1cc(Cl)c(Cl)cc1Cl)c1c(N)n(CC(C)C)c(=O)[nH]c1=O` [Decoy712]: the Type result is given as “Inactive (Decoy)”.
As for `COc1ccc(CCNC(=O)CN(c2ccc(F)cc2)S(=O)(=O)c2ccc(OC)c(OC)c2)cc1OC` [Decoy713], the Type result is “Inactive (Decoy)”.
Consider `Cc1cccn2c(=O)c(/C=C3\SC(=S)N(CCCCCC(=O)O)C3=O)c(NCCN3CCOCC3)nc12` [Decoy714], for which the Type entry was “Inactive (Decoy)”.
Turning to `COc1cc(C[C@H]2CO[C@H](c3ccc(O)c(OC)c3)[C@@H]2CO[C@H]2O[C@@H](CO)[C@@H](O)[C@@H](O)[C@H]2O)ccc1O` [Decoy715], the Type result is “Inactive (Decoy)”.
